Values of other authors in patent publication US20150132347A1, “TREATING INFLAMMATORY CONDITIONS AND IMPROVING ORAL HYGIENE USING METAL MODULATORS WITH METHYLSULFONYLMETHANE AS TRANSPORT ENHANCER” (priority 2012, published 2015).

Settings: in water @ 79° F.

water solubility: 34 % w/v
Compound: CS(C)(=O)=O [MSM, methylsulfonylmethane]
